# In PubChem BioAssay (NCI):
# Several values for one entry are separate records, joined by “and”; a condition that tells them apart may be missing. Identical values can stand only once.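 Dose response: 5 concentrations. Exposure: 48 h. Format: 96-well plates. Endpoint: linear interpolation; highest concentration if not reached. GI50: concentration for 50% inhibition of growth. At the TGI there is no net growth.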
# Columns and labels:
# Test in all cases: NCI-60 cell line screen, 48 h
# [1] = tested on: HOP-92 NSCLC
# [2] = tested on: CCRF-CEM leukemia
# [3] = tested on: SF-539 CNS
# [4] = tested on: OVCAR-3 ovarian
# [5] = tested on: NCI-H460 lung
# [6] = tested on: A549 NSCLC
# [7] = tested on: RPMI-8226 leukemia
# [8] = tested on: HL-60(TB) leukemia
# [9] = tested on: MOLT-4 leukemia
# [10] = tested on: T-47D breast
SMILES,GI50 [1],TGI [1],GI50 [2],TGI [2],GI50 [3],TGI [3],GI50 [4],TGI [4],GI50 [5],TGI [5],GI50 [6],TGI [6],GI50 [7],TGI [7],GI50 [8],TGI [8],GI50 [9],TGI [9],GI50 [10],TGI [10]
CCC[CH2][Sn]1([CH2]CCC)[O]C(=O)c2cc(I)cc(I)c2[O]1,1.4 µM,2.93 µM,0.22 µM,0.79 µM,1.16 µM,2.44 µM,1.42 µM,2.77 µM,1.45 µM,2.76 µM,2.72 µM,8.41 µM,0.238 µM,1.16 µM,0.4 µM,2.22 µM,0.344 µM,1.76 µM,,
Cc1[nH]c2ccccc2c1C1Cc2ccccc2N1C(=O)/C=C/C=C/c1ccccc1 (configuration not stated),,> 100 µM,,> 100 µM,,> 100 µM,,> 100 µM,,> 100 µM,,> 100 µM,,> 100 µM,,> 100 µM,,> 100 µM,,
[O-]c1c2c(nn1-c1ccccc1)c1ccccc1c[n+]2Cc1ccccc1,,> 100 µM,,> 100 µM,,> 100 µM,,> 100 µM,,> 100 µM,,> 100 µM,,> 100 µM,,> 100 µM,,> 100 µM,,
Cc1nc(Cl)nc(Cl)c1C,,,,> 100 µM,,> 100 µM,,> 100 µM,,> 100 µM,,> 100 µM,,> 100 µM,,> 100 µM,,> 100 µM,,
C/C(=C\C(C)COCc1ccccc1)[C@H](COCc1ccccc1)OCc1ccccc1 (some centres not stated),,> 100 µM,,> 100 µM,,> 100 µM,,> 100 µM,,> 100 µM,,> 100 µM,,> 100 µM,,,,> 100 µM,,
Cn1nccc1Nc1nccc(-c2cc3c(s2)C(C)(C)N(CCN2CCOCC2)C3=O)n1,,,23.4 µM,> 100 µM,27.9 µM,> 100 µM,27.2 µM,> 100 µM,21.4 µM,> 100 µM,5.27 µM,> 100 µM,23.3 µM,> 100 µM,0.499 µM,78 µM,25.7 µM,> 100 µM,17.4 µM,> 77.7 µM
COc1cc(/C=C2\[C@H]3c4c(c(OC)c(C)c(OC)c4OC)C[C@@H](C(=O)N2Cc2ccccc2)N3C(=O)OCC(C)C)c(OC)c(C)c1OC,,> 100 µM,,> 100 µM,,> 100 µM,,> 100 µM,,> 100 µM,,> 100 µM,,> 100 µM,,> 100 µM,,> 100 µM,,
COc1ccc2c(=O)c(C)c(-c3ccccc3)oc2c1CN(C)C,,> 100 µM,,> 100 µM,,> 100 µM,,> 100 µM,,> 100 µM,,> 100 µM,,> 100 µM,> 100 µM and 34.6 µM,> 100 µM,,> 100 µM,,
O=c1/c(=C/c2cccc([N+](=O)[O-])c2)sc2nc3ccccc3n12,,,,> 100 µM,,,,,,> 100 µM,,,,,,> 100 µM,,,,
CC(C)(C)NC(C1=CC(C)(C)c2ccccc2C1=O)c1ccccc1 (configuration not stated),,,1.14 µM,4.07 µM,1.66 µM,3.02 µM,1.31 µM,2.58 µM,1.93 µM,4.58 µM,2.16 µM,5.25 µM,,,0.868 µM,2.9 µM,1.48 µM,4.6 µM,1.12 µM,2.55 µM
CCOC(C)C(/C=N/NC(N)=S)=NNC(N)=S (configuration not stated),,> 100 µM,,> 100 µM,,> 100 µM,,,,> 100 µM,,> 100 µM,,> 100 µM,,> 100 µM,,> 100 µM,,
COc1cc(/C=C2/C(=O)N(C(=O)OC(C)C)C(Cc3cc(OC)c(OC)c(C)c3OC)C(=O)N2Cc2ccccc2)c(OC)c(C)c1OC (configuration not stated),,> 100 µM,,> 100 µM,,> 100 µM,,> 100 µM,,> 100 µM,,> 100 µM,,> 100 µM,,> 100 µM,,44.1 µM,,
Cc1cc(O)cc2oc(=O)c3c(O)cc(O)cc3c12,,76.3 µM,,> 100 µM,,49.2 µM,,58.4 µM,,30.8 µM,,86 µM,,,,46.5 µM,,31.2 µM,,
Cc1c(Cl)ccc2c1NC(=O)C2(O)C(C(=O)c1ccccc1)c1ccccc1 (configuration not stated),,,,73.8 µM,,> 100 µM,,,,> 100 µM,,> 100 µM,,69 µM,,39.5 µM,,76.7 µM,,
O=S1c2ccccc2N=C(c2ccc3ccccc3c2)CC1C1=CC=CCC1 (configuration not stated),,,,23.6 µM,,45.3 µM,,31.8 µM,,54.5 µM,,91.2 µM,,36.9 µM,,36.8 µM,,40.5 µM,,
COc1ccc(C(=O)OCC2OC(n3cnc4c(=S)nc[nH]c43)C(OC(=O)c3ccc(OC)cc3)C2OC(=O)c2ccc(OC)cc2)cc1 (configuration not stated),,> 100 µM,,93.3 µM,,> 100 µM,,> 100 µM,,> 100 µM,,> 100 µM,,> 100 µM,,> 100 µM,,> 100 µM,,
CCCCCCCCCCCCCC(=O)O[C@H]1CC[C@H](NC(=O)[C@H](OC)[C@H](O)[C@@H](O)[C@H](O)/C=C/C(C)C)C(=O)NC1,0.554 µM,4.12 µM,,8.44 µM and 10.7 µM,,22 µM and 17.6 µM,0.00435 µM,10.5 µM and 17.9 µM,,,,7.34 µM and 13.8 µM,,11.6 µM and 10.2 µM,,,,16.9 µM and 14.5 µM,,> 100 µM
COC(=O)C1=C2CCC(=O)[C@@]2(C)C(OC(C)=O)C=CC1 (some centres not stated),,,,> 100 µM,,> 100 µM,,> 100 µM,,> 100 µM,,> 100 µM,,> 100 µM,,> 100 µM,,> 100 µM,,
CC(=O)[CH-]C(=O)c1ccccc1.CC(=O)[CH-]C(=O)c1ccccc1.CC[O-].CC[O-].[Zr+4],,,69.7 µM,> 100 µM,> 100 µM,> 100 µM,> 100 µM,> 100 µM,> 100 µM,> 100 µM,> 100 µM,> 100 µM,> 100 µM,> 100 µM,> 100 µM,> 100 µM,> 100 µM,> 100 µM,,
O=S(=O)(/C=C/c1ccc(Cl)cc1Cl)Cc1ccccc1CS(=O)(=O)/C=C/c1ccc(Cl)cc1Cl,,> 100 µM,,> 100 µM,,> 100 µM,,> 100 µM,,> 100 µM,,> 100 µM,,> 100 µM,,,,> 100 µM,,
CC1CC2(C)ON=C(c3ccccc3)N2c2ccccc2S1 (configuration not stated),,,28.1 µM,77.6 µM,22.4 µM,51.6 µM,94.1 µM,,41.3 µM,,34.3 µM,,20.4 µM,69.2 µM,23.5 µM,,16 µM,44.9 µM,58.5 µM,
